We go through nine compounds from article PMC10133546, “Simultaneous determination of multiple components in rat plasma by UHPLC-sMRM for pharmacokinetic studies after oral administration of Qingjin Yiqi Granules” (Frontiers in Pharmacology, 2023).

The structures appear in SMILES notation.

The nature of data set [1]: Stability of the working solution (4°C for 1 month). Type of data set: physicochemical.
Experimental: The stability of analytes in plasma was evaluated by analyzing 4 QC samples (n = 6). The stability was included auto-sampler stability (keeping the sample in auto-sampler for 24 h), three times of freeze-thaw cycles stability (freezing cycle at −80°C, thawing cycle at room temperature), room temperature stability (storing samples at room temperature for 24 h), long-term stability (storing samples at −80°C for 1 month). […] Accompanying curve was established when testing the sample, calculate and compare the ratio of the actual measured concentration to the theoretical concentration, expressed in accuracy and RSD.
Data set [2] in a line: Stability of analytes in rat plasma (auto-sampler, freeze-thaw, room temperature, long-term). The conditions noted are these: for Autosampler for 24 h Accuracy (%): autosampler 24 h; for Room temperature for 24 h Accuracy (%): room temperature 24 h; for Freeze thaw cycles Accuracy (%): three freeze-thaw cycles.

Turning to `O=c1c(O[C@@H]2O[C@H](CO)[C@H](O)[C@H](O)[C@H]2O)c(-c2ccc(O)c(O)c2)oc2cc(O)cc(O)c12` [hyperoside], the “Working solution Accuracy (%)” value is listed as 92.1% in data set [1] (12.5 ng/mL), 91.2% in data set [1] (100 ng/mL) and 95.0% in data set [1] (500 ng/mL). Moreover, the “Autosampler for 24 h Accuracy (%)” value amounted to 111.0% in data set [2] (1.56 ng/mL), 101.0% in data set [2] (12.5 ng/mL), 90.5% in data set [2] (100 ng/mL) and 95.8% in data set [2] (500 ng/mL). The figures for the “Room temperature for 24 h Accuracy (%)” value in data set [2] (1.56 ng/mL), in data set [2] (100 ng/mL) and in data set [2] (500 ng/mL) were 91.6%, 95.4% and 99.1%, respectively. Also, the “Freeze thaw cycles Accuracy (%)” value in data set [2] (1.56 ng/mL) amounted to 97.6%; in data set [2] (12.5 ng/mL), 98.4%; in data set [2] (100 ng/mL), 93.5%; in data set [2] (500 ng/mL), 95.3%. Moreover, the “−80°C for 1month Accuracy (%)” value in data set [2] (1.56 ng/mL, −80°C 1 month) was 106.0%; in data set [2] (12.5 ng/mL, −80°C 1 month) it was 100.0%; in data set [2] (100 ng/mL, −80°C 1 month) it was 88.8%.
Take `O=C1C[C@@H](c2ccc(O)cc2)Oc2cc(O)cc(O)c21` [naringenin]: the “Working solution Accuracy (%)” value in data set [1] (12.5 ng/mL) came to 93.5%; in data set [1] (50 ng/mL) it was 102.0%; in data set [1] (100 ng/mL) it was 85.6%; in data set [1] (500 ng/mL), 98.2%. Also, the “Room temperature for 24 h Accuracy (%)” value in data set [2] (12.5 ng/mL) was found to be 94.4%; in data set [2] (100 ng/mL) it was 92.9%; in data set [2] (500 ng/mL), 95.2%. For the same compound, the “Freeze thaw cycles Accuracy (%)” value in data set [2] (12.5 ng/mL) is 97.6%. Moreover, the “−80°C for 1month Accuracy (%)” value in data set [2] (12.5 ng/mL, −80°C 1 month) is reported as 85.7%; in data set [2] (50 ng/mL, −80°C 1 month) it was 98.2%; in data set [2] (100 ng/mL, −80°C 1 month), 97.4%; in data set [2] (500 ng/mL, −80°C 1 month), 94.2%. Also, the figures for the “Autosampler for 24 h Accuracy (%)” value in data set [2] (50 ng/mL), in data set [2] (100 ng/mL) and in data set [2] (500 ng/mL) were 98.3%, 99.5% and 107.0%, respectively.
With `CC(C)=CCC[C@](C)(O)[C@H]1CC[C@]2(C)[C@@H]1[C@H](O)C[C@@H]1[C@@]3(C)CC[C@H](O)C(C)(C)[C@@H]3[C@@H](O[C@@H]3O[C@H](CO)[C@@H](O)[C@H](O)[C@H]3O[C@@H]3O[C@H](CO)[C@@H](O)[C@H](O)[C@H]3O)C[C@]12C` [ginsenoside Rf], the “Working solution Accuracy (%)” value in data set [1] (12.5 ng/mL) is recorded as 91.9%; in data set [1] (50 ng/mL), 94.9%; in data set [1] (100 ng/mL), 110.0%; in data set [1] (500 ng/mL) it was 102.0%. Moreover, the entries for the “Autosampler for 24 h Accuracy (%)” value in data set [2] (12.5 ng/mL), in data set [2] (50 ng/mL) and in data set [2] (100 ng/mL) were 112.0%, 98.9% and 88.2%, respectively. Moreover, the entries for the “Room temperature for 24 h Accuracy (%)” value in data set [2] (12.5 ng/mL), in data set [2] (100 ng/mL) and in data set [2] (500 ng/mL) were 96.1%, 96.8% and 113.0%, respectively. Moreover, the results for the “Freeze thaw cycles Accuracy (%)” value in data set [2] (12.5 ng/mL), in data set [2] (50 ng/mL) and in data set [2] (100 ng/mL) were 97.2%, 88.0% and 89.7%, respectively. Besides, the “−80°C for 1month Accuracy (%)” value in data set [2] (12.5 ng/mL, −80°C 1 month) was found to be 97.1%; in data set [2] (50 ng/mL, −80°C 1 month), 89.6%; in data set [2] (500 ng/mL, −80°C 1 month), 112.0%.
Turning to `O=C(O)[C@H]1O[C@@H](Oc2cc3oc(-c4ccc(O)cc4)cc(=O)c3c(O)c2O)[C@H](O)[C@@H](O)[C@@H]1O` [scutellarin], the “Working solution Accuracy (%)” value in data set [1] (50 ng/mL) was 97.2%; in data set [1] (100 ng/mL) it was 108.0%; in data set [1] (200 ng/mL) it was 99.4%; in data set [1] (500 ng/mL), 100.0%. For the same compound, the “Room temperature for 24 h Accuracy (%)” value in data set [2] (50 ng/mL) amounted to 91.2%; in data set [2] (100 ng/mL), 101.0%; in data set [2] (200 ng/mL), 90.6%; in data set [2] (500 ng/mL), 105.0%. Besides, the “−80°C for 1month Accuracy (%)” value in data set [2] (50 ng/mL, −80°C 1 month) is reported as 92.2%; in data set [2] (100 ng/mL, −80°C 1 month), 101.0%; in data set [2] (200 ng/mL, −80°C 1 month), 90.4%; in data set [2] (500 ng/mL, −80°C 1 month), 103.0%. Moreover, the entries for the “Autosampler for 24 h Accuracy (%)” value in data set [2] (100 ng/mL), in data set [2] (200 ng/mL) and in data set [2] (500 ng/mL) were 109.0%, 94.7% and 101.0%, respectively. Besides, the “Freeze thaw cycles Accuracy (%)” value in data set [2] (100 ng/mL) was 111.0%; in data set [2] (200 ng/mL), 85.4%; in data set [2] (500 ng/mL) it was 112.0%.
Consider `O=c1cc(-c2ccc(O)cc2)oc2c([C@@H]3O[C@H](CO)[C@@H](O)[C@H](O)[C@H]3O)c(O)cc(O)c12` [vitexin], for which the “Working solution Accuracy (%)” value in data set [1] (1.56 ng/mL) was determined as 95.6%; in data set [1] (12.5 ng/mL), 88.3%; in data set [1] (100 ng/mL), 89.9%; in data set [1] (500 ng/mL), 106.0%. The “Autosampler for 24 h Accuracy (%)” value in data set [2] (1.56 ng/mL) is reported as 95.0%; in data set [2] (12.5 ng/mL), 93.5%; in data set [2] (100 ng/mL), 93.2%; in data set [2] (500 ng/mL), 92.4%. Further, the “Room temperature for 24 h Accuracy (%)” value stood at 92.0% in data set [2] (1.56 ng/mL), 105.0% in data set [2] (12.5 ng/mL), 88.3% in data set [2] (100 ng/mL) and 107.0% in data set [2] (500 ng/mL). Besides, the “Freeze thaw cycles Accuracy (%)” value in data set [2] (1.56 ng/mL) is reported as 103.0%; in data set [2] (12.5 ng/mL), 92.0%; in data set [2] (100 ng/mL), 85.5%; in data set [2] (500 ng/mL), 108.0%. Further, the “−80°C for 1month Accuracy (%)” value in data set [2] (1.56 ng/mL, −80°C 1 month) is recorded as 90.4%; in data set [2] (12.5 ng/mL, −80°C 1 month), 106.0%; in data set [2] (100 ng/mL, −80°C 1 month), 93.2%; in data set [2] (500 ng/mL, −80°C 1 month), 92.6%.
Turning to `COc1c2ccoc2c(OC)c2oc(=O)ccc12` [isopimpinellin (IS)], the “Working solution Accuracy (%)” value in data set [1] (concentration 100 ng/mL) amounted to 93.5%. Further, in data set [2] (concentration 100 ng/mL), the “Autosampler for 24 h Accuracy (%)” value amounted to 98.6%, the “Room temperature for 24 h Accuracy (%)” value came out at 96.5% and the “Freeze thaw cycles Accuracy (%)” value was 88.2%. Also, the “−80°C for 1month Accuracy (%)” value in data set [2] (−80°C for 1 month, concentration 100 ng/mL) is listed as 109.0%.
For the compound `O=C(/C=C/c1ccc(O)c(O)c1)O[C@H]1[C@H](O)C[C@](O)(C(=O)O)C[C@H]1O` [cryptochlorogenic acid], the “Working solution Accuracy (%)” value came to 87.6% in data set [1] (12.5 ng/mL), 95.0% in data set [1] (50 ng/mL), 94.6% in data set [1] (100 ng/mL) and 96.8% in data set [1] (500 ng/mL). Besides, the “Autosampler for 24 h Accuracy (%)” value in data set [2] (12.5 ng/mL) turned out to be 94.6%; in data set [2] (50 ng/mL), 93.1%; in data set [2] (100 ng/mL), 92.7%; in data set [2] (500 ng/mL), 109.0%. For the same compound, the “Room temperature for 24 h Accuracy (%)” value in data set [2] (12.5 ng/mL) amounted to 90.6%; in data set [2] (50 ng/mL), 91.2%; in data set [2] (500 ng/mL), 100.0%. Moreover, the “Freeze thaw cycles Accuracy (%)” value was determined as 84.5% in data set [2] (12.5 ng/mL), 86.6% in data set [2] (50 ng/mL), 88.9% in data set [2] (100 ng/mL) and 98.7% in data set [2] (500 ng/mL). Further, the “−80°C for 1month Accuracy (%)” value in data set [2] (12.5 ng/mL, −80°C 1 month) is listed as 90.6%; in data set [2] (50 ng/mL, −80°C 1 month), 107.0%; in data set [2] (100 ng/mL, −80°C 1 month), 110.0%; in data set [2] (500 ng/mL, −80°C 1 month), 104.0%.
On to `CC(C)=CCC[C@](C)(O)[C@H]1CC[C@]2(C)[C@@H]1[C@H](O)C[C@@H]1[C@@]3(C)CC[C@H](O)C(C)(C)[C@@H]3[C@@H](O[C@@H]3O[C@H](CO)[C@@H](O)[C@H](O)[C@H]3O)C[C@]12C` [ginsenoside Rh1], for which the figures for the “Working solution Accuracy (%)” value in data set [1] (50 ng/mL) and in data set [1] (100 ng/mL) were 106.0% and 95.1%, respectively. The “Autosampler for 24 h Accuracy (%)” value in data set [2] (50 ng/mL) worked out at 86.5%; in data set [2] (100 ng/mL), 90.8%; in data set [2] (concentration 200 ng/mL), 96.5%; in data set [2] (concentration 500 ng/mL), 108.0%. For the same compound, the “Room temperature for 24 h Accuracy (%)” value in data set [2] (50 ng/mL) was 100.0%; in data set [2] (100 ng/mL) it was 96.5%; in data set [2] (concentration 500 ng/mL) it was 98.7%. Further, the “−80°C for 1month Accuracy (%)” value worked out at 107.0% in data set [2] (50 ng/mL, −80°C 1 month); 93.5% in data set [2] (100 ng/mL, −80°C 1 month); 114.0% in data set [2] (−80°C for 1 month, concentration 500 ng/mL). The results for the “Freeze thaw cycles Accuracy (%)” value in data set [2] (100 ng/mL) and in data set [2] (concentration 500 ng/mL) were 100.0% and 94.1%, respectively.
On to `CC(C)(O[C@@H]1O[C@H](CO)[C@@H](O)[C@H](O)[C@H]1O)[C@@H]1CC[C@](O)(CO)[C@H]2CC(=O)[C@@](C)(O)[C@@H]2C1` [atractyloside A], for which the “Working solution Accuracy (%)” value in data set [1] (50 ng/mL) came out at 88.5%; in data set [1] (100 ng/mL), 104.0%; in data set [1] (200 ng/mL), 87.0%; in data set [1] (500 ng/mL) it was 97.2%. For the same compound, the “Autosampler for 24 h Accuracy (%)” value in data set [2] (50 ng/mL) is reported as 107.0%; in data set [2] (100 ng/mL), 94.4%; in data set [2] (200 ng/mL), 91.5%; in data set [2] (500 ng/mL), 103.0%. The “Room temperature for 24 h Accuracy (%)” value was 97.6% in data set [2] (50 ng/mL), 104.0% in data set [2] (100 ng/mL), 89.9% in data set [2] (200 ng/mL) and 91.2% in data set [2] (500 ng/mL). Moreover, the “Freeze thaw cycles Accuracy (%)” value in data set [2] (50 ng/mL) is 84.6%; in data set [2] (200 ng/mL) it was 97.0%. Besides, the “−80°C for 1month Accuracy (%)” value in data set [2] (50 ng/mL, −80°C 1 month) is given as 89.7%; in data set [2] (100 ng/mL, −80°C 1 month) it was 96.2%; in data set [2] (200 ng/mL, −80°C 1 month), 93.4%; in data set [2] (500 ng/mL, −80°C 1 month), 92.2%.
